{"source": "patent US9211262B2", "about": "“Injectable pharmaceutical compositions of an anthracenedione derivative with anti-tumoral activity” (CTI BioPharma Corp., priority 2002, dated 2015)", "key": {"[1]": {"settings": "in vivo; cited from earlier work"}, "[2]": {"experiment": "Stability in solution in common solvents for parenteral administration", "format": "physicochemical", "settings": "injectable liquid compositions"}, "[3]": {"experiment": "Solubility in water and sodium chloride solutions", "format": "physicochemical", "from_the_text": "However, the presence of sodium chloride requires the use of long lyophilisation cycles due to the low glass transition temperature observed."}, "[4]": {"test_system": "YC-8 lymphoma", "settings": "wide range of doses; cited from earlier work"}, "[5]": {"test_system": "ascitic L1210 leukaemia", "settings": "wide range of doses; cited from earlier work"}}}
{"smiles": "NCCNc1ccc(NCCN)c2c1C(=O)c1ccncc1C2=O.O=C(O)/C=C\\C(=O)O.O=C(O)/C=C\\C(=O)O", "note": "[BBR 2778, 6,9-bis[(2-aminoethyl)amino]benzo[g]isoquinoline-5,10-dione dimaleate]", "values": [{"measurement": "cardiotoxicity", "setting": "[1]", "result": "lower than that of other known drugs belonging to the same class"}, {"measurement": "stability in solution", "setting": "[2]", "result": "problematic"}, {"measurement": "solubility in sodium chloride solutions", "setting": "[3]; sodium chloride solutions 0.9 to 4%", "result": "progressively more soluble"}, {"measurement": "solubility in water", "setting": "[3]; water", "result": "low solubility"}, {"measurement": "activity compared with mitoxantrone", "setting": "[4]", "result": "more active than mitoxantrone"}, {"measurement": "activity compared with mitoxantrone", "setting": "[5]", "result": "more active than mitoxantrone"}]}
